Where “and” joins values, the source holds several entries; their conditions need not be identical. Equal values may be shown once. Entries after “also recorded” stand apart in the source; their conditions may differ.

The target of series [1] is T1, membrane-bound human MAO-B (Homo sapiens, UniProt P27338).
T1 sequence (P27338 1-520): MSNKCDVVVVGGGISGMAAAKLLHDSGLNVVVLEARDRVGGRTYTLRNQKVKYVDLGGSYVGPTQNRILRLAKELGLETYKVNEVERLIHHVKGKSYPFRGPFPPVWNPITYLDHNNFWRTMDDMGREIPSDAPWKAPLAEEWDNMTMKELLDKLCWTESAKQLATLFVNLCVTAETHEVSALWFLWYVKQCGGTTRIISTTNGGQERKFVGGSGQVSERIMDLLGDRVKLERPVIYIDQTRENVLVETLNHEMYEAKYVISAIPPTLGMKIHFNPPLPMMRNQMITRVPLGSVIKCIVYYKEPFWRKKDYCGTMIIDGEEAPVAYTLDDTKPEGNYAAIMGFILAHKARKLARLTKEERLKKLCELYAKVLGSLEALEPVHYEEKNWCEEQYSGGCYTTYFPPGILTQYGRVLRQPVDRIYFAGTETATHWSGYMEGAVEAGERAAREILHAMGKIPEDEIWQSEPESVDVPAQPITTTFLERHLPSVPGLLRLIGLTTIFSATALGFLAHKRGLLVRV
Briefly: MAO-B inhibition, H2O2/horseradish peroxidase coupled fluorescence assay with tyramine. The class given is biochemical. Particulars: for maximum inhibition (%) hMAO-B: from dose–response curve, in parentheses after IC50, given if less than 95%; for inhibition at 10 µM: read-out: % inhibition at 10 μM hMAO-B, 10 μM compound, tyramine 0.32 mM (2 × KM), average of two independent experiments; for IC50 / IC50 (μM) hMAO-B: tyramine at 2 × KM, seven concentrations 0.01–300 µM, ± s.d., two independent experiments; for IC50: read-out: IC50 (μM) hMAO-B. The protocol: (§1) Incomplete inhibition of activity could arise either from indirect effects on these enzymes or from the compounds acting as substrates at the highest concentrations.
(§2) The activity of MAO was determined using the coupled assay method of [41, 42] in which the product, H2O2, acts with horseradish peroxidase to convert 10-acetyl-3,7-dihydroxyphenoxazine to the fluorescent resorufin. […] The data were analysed using the equation for a three-parameter curve in Graphpad PRISM v. 4, and the % inhibition calculated from the top and bottom of the resulting curve.

Series [2] has as its target T2, membrane-bound human MAO-A (Homo sapiens, UniProt P21397).
T2 sequence (P21397 1-527): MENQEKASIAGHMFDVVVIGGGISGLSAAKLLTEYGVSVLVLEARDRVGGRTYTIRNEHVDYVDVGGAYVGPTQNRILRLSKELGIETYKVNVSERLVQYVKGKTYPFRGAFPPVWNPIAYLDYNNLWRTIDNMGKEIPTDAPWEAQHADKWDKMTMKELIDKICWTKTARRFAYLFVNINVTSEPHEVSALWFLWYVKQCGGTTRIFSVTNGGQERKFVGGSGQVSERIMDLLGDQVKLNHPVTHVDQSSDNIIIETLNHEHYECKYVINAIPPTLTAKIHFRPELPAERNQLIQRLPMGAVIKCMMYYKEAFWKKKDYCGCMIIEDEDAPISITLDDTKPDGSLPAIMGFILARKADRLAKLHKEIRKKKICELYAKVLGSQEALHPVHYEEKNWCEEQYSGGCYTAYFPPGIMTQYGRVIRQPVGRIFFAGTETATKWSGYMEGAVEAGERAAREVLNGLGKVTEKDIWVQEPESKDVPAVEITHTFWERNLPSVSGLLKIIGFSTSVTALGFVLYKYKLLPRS
The series is described as follows: MAO-A inhibition, H2O2/horseradish peroxidase coupled fluorescence assay with tyramine. The series is classed as biochemical. Conditions: for inhibition at 10 µM: read-out: % inhibition at 10 μM hMAO-A, 10 μM compound, tyramine 0.8 mM (2 × KM), average of two independent experiments; for IC50 (μM) hMAO-A / IC50: tyramine at 2 × KM, seven concentrations 0.01–300 µM, ± s.d., two independent experiments; for IC50: read-out: IC50 (μM) hMAO-A; for selectivity MAO-A versus MAO-B: from IC50 values on MAO-A and MAO-B; for inhibition of MAO-A compared with MAO-B in the screen: screen at 10 µM. The protocol: as §1, §2

For orientation: inhibition means the change of the read-out against control, counted positive when it falls. Broadly, the IC50 is the concentration needed to halve the response being measured. With `COC(=O)CN1C(=O)c2ccccc2NC1c1ccccc1` (centres unmarked) [3a, Methyl-2-(4-oxo-2-phenyl-1,2-dihydroquinazolin-3(4H)-yl)acetate], in series [1], the “maximum inhibition (%) hMAO-B” value is 40%, the inhibition at 10 µM was 38% and the IC50 amounted to 5.28 ± 1.44 µM. Moreover, in series [2], the inhibition at 10 µM was -6% and the “IC50 (μM) hMAO-A” value was “none”.
A word on the melting point: it is the temperature of the solid-liquid transition. The molecule `COC(=O)CN1C(=O)c2cc(Cl)ccc2NC1c1ccccc1` (centres unmarked) [3b, Methyl-2-(6-chloro-4-oxo-2-phenyl-1,2-dihydroquinazolin-3(4H)-yl)acetate] had a melting point of 162 to 163 °C. In addition, in series [1], the inhibition at 10 µM came to 34%. The inhibition at 10 µM in series [2] turned out to be 10%.
The corresponding values for `COC(=O)CN1C(=O)c2cc(Cl)ccc2NC1c1ccc(OC)cc1` (centres unmarked) [3c, Methyl 2-(6-chloro-2-(4-methoxyphenyl)-4-oxo–1,2-dihydroquinazolin-3(4H)-yl)acetate] are 148 to 150 °C, 10% and -3%.
Molecule `COC(=O)CN1C(=O)c2cc(Cl)ccc2NC1c1ccccc1OC` (centres unmarked) [3d, Methyl 2-(6-chloro-2-(2-methoxyphenyl)-4-oxo–1,2-dihydroquinazolin-3(4H)-yl)acetate] registered a melting point of 152 to 154 °C. For the same molecule, the inhibition at 10 µM in series [1] was 27%. In addition, the inhibition at 10 µM in series [2] was found to be 0%.
As to `NNC(=O)CN1C(=O)c2cc(Cl)ccc2NC1c1ccccc1` (centres unmarked) [4b, 2-(6-Chloro-4-oxo-2-phenyl-1,2-dihydroquinazolin-3(4H)-yl)acetohydrazide], the melting point was in the range of 184 to 185 °C. Besides, the inhibition at 10 µM in series [1] was 31%. The inhibition at 10 µM in series [2] is 6%.
`COc1ccc(C2Nc3ccc(Cl)cc3C(=O)N2CC(=O)NN)cc1` (centres unmarked) [4c, 2-(6-Chloro-2-(4-methoxyphenyl)-4-oxo-1,2-dihydroquiazolin-3(4H)-yl)acetohydrazide] came in with a melting point of 159 to 160 °C. For the same molecule, the inhibition at 10 µM in series [1] worked out at 27%. For the same molecule, the inhibition at 10 µM in series [2] is 0%.
The molecule `COc1ccccc1C1Nc2ccc(Cl)cc2C(=O)N1CC(=O)NN` (centres unmarked) [4d, 2-(6-Chloro-2-(2-methoxyphenyl)-4-oxo-1,2-dihydroquinazolin-3(4H)-yl)acetohydrazide] showed a melting point of 149 to 151 °C. In addition, the inhibition at 10 µM in series [1] is 28%. Moreover, the inhibition at 10 µM in series [2] was 0%.
In turn, `O=C(CN1C(=O)c2ccccc2NC1c1ccccc1)NN=Cc1ccccc1` (centres unmarked) [5a, N'-Benzylidene-2-(4-oxo-2-phenyl-1,2-dihydroquinazolin-3(4H)-yl)acetohydrazide] had a melting point of 223 to 225 °C. Also, in series [1], the “maximum inhibition (%) hMAO-B” value is listed as “full inhibition”; the inhibition at 10 µM worked out at 55%; the “IC50 (μM) hMAO-B” value is reported as “micromolar affinity”; the 50% inhibitory concentration (IC50) was < 10 µM and 10 µM. Moreover, in series [2], the inhibition at 10 µM worked out at 19%; the “IC50 (μM) hMAO-A” value was “micromolar potency”; the IC50 is 4.4 µM and 6 µM and 6.2 µM.
In turn, `O=C(CN1C(=O)c2ccccc2NC1c1ccccc1)NN=Cc1ccc(O)cc1` (centres unmarked) [5b, N'-(4-Hydroxybenzylidene)-2-(4-oxo-2-phenyl-1,2-dihydroquinazolin-3(4H)-yl)acetohydrazide] registered a melting point of 230 to 232 °C. In series [1], the inhibition at 10 µM worked out at 36% and the IC50 was found to be 83 µM. In series [2], the inhibition at 10 µM was 6% and the “IC50 (μM) hMAO-A” value was “none”.
As to `COc1ccc(C=NNC(=O)CN2C(=O)c3ccccc3NC2c2ccccc2)cc1` (centres unmarked) [5c, N'-(4-Methoxybenzylidene)-2-(4-oxo-2-phenyl-1,2-dihydroquinazolin-3(4H)-yl)acetohydrazide], the melting point was in the range of 210 to 212 °C.
Consider `COc1cc(C=NNC(=O)CN2C(=O)c3ccccc3NC2c2ccccc2)ccc1O` (centres unmarked) [5d, N'-(4-Hydroxy-3-methoxybenzylidene)-2-(4-oxo-2-phenyl-1,2-dihydroquinazolin-3(4H)yl)acetohydrazide], for which the melting point lay in the range of 252 to 255 °C. For the same molecule, in series [1], the “maximum inhibition (%) hMAO-B” value is reported as “full inhibition”, the inhibition at 10 µM came out at 70%, the “IC50 (μM) hMAO-B” value is “micromolar affinity” and the IC50 was 0.75 ± 0.18 µM. Besides, in series [2], the “selectivity MAO-A versus MAO-B” value is listed as “threefold selective for MAO-A”; the inhibition at 10 µM was found to be 71%; the “inhibition of MAO-A compared with MAO-B in the screen” value is “equal inhibition of MAO-A and MAO-B; also recorded: equally inhibited”; the “IC50 (μM) hMAO-A” value is listed as “micromolar potency”. Further, the IC50 in series [2] was 0.27 ± 0.06 µM.
`COc1ccc(C=NNC(=O)CN2C(=O)c3cc(Cl)ccc3NC2c2ccccc2)cc1` (centres unmarked) [5f, 2-(6-Chloro-4-oxo-2-phenyl-1,4-dihydroquinazolin-3(2H)-yl)-N'-(4-methoxybenzylidene)-acetohydrazide] showed a melting point of 138 to 140 °C.
As to `Cc1nc2ccccc2c(=O)n1/N=C/c1ccccc1` [14a], in series [1], the “maximum inhibition (%) hMAO-B” value is 77%; the inhibition at 10 µM is 40%; the IC50 was < 10 µM and 6.84 µM. For the same molecule, in series [2], the inhibition at 10 µM worked out at 5% and the “IC50 (μM) hMAO-A” value is “does not inhibit MAO-A”.
For `Cc1nc2ccccc2c(=O)n1/N=C/c1ccc(O)cc1` [14b], the “mechanism of inhibition of MAO-B” value in series [1] (30 min preincubation, dilution ×100, increasing substrate concentration) is listed as “competitive inhibition”. In addition, in series [1], the “maximum inhibition (%) hMAO-B” value turned out to be 77%, the inhibition at 10 µM is 52% and the IC50 amounted to 4.64 ± 0.41 µM. In series [2], the “selectivity MAO-A versus MAO-B” value is “B-selective”, the inhibition at 10 µM turned out to be 14% and the “IC50 (μM) hMAO-A” value is on record as “no inhibition”.
With `COc1ccc(/C=N/n2c(C)nc3ccccc3c2=O)cc1` [14c], in series [1], the “maximum inhibition (%) hMAO-B” value was found to be 73%, the inhibition at 10 µM turned out to be 44% and the 50% inhibitory concentration (IC50) was determined as 6.75 ± 1.06 µM. The inhibition at 10 µM in series [2] is 8%.
For the molecule `COc1cc(/C=N/n2c(C)nc3ccccc3c2=O)ccc1O` [14d], in series [1], the “maximum inhibition (%) hMAO-B” value is 77%, the inhibition at 10 µM worked out at 44% and the concentration for half-maximal inhibition (IC50) came out at 5.93 ± 1.02 µM. For the same molecule, the inhibition at 10 µM in series [2] was determined as 11%.
For the molecule `NNC(=O)Cn1c(-c2ccccc2)nc2ccccc2c1=O` [compound 7, 2-(4-oxo-2-phenylquinazolin-3(4H)-yl)acetohydrazide], the melting point is 215 to 218 °C.
On the same count and under the same terms, the value for `COC(=O)Cn1c(-c2ccccc2)nc2ccccc2c1=O` [compound 8, Methyl 2-(4-oxo-2-phenylquinazolin-3(4H)-yl)acetate] was 115 to 116 °C.
For the molecule `Cc1nc2ccccc2c(=O)n1CC(=O)NN` [compound 11, 2-(2-Methyl-4-oxoquinazolin-3(4H)-yl)acetohydrazide], in series [1], the inhibition at 10 µM stood at 19% and the IC50 was greater than 100 µM. In series [2], the inhibition at 10 µM came out at 15%; the “inhibition of MAO-A compared with MAO-B in the screen” value is “equal inhibition of MAO-A and MAO-B; also recorded: equally inhibited”.
As for `Cc1nc2ccccc2c(=O)n1N` [compound 13], the results for the inhibition at 10 µM in series [1] and in series [2] were 23% and -8%, respectively.
With `COc1ccc2c(c1)[nH]c1c(C)nccc12` [harmine, reference compound], in series [1], the inhibition at 10 µM was determined as 17% and the IC50 was 11.6 ± 3.1 µM. Further, in series [2], the inhibition at 10 µM is 100%.
As for `C[C@H](NCc1ccc(OCc2cccc(F)c2)cc1)C(N)=O` [safinamide, reference compound], the inhibition at 10 µM in series [2] stood at 11%.

Source of the values: PMC7211837, “Design, synthesis, molecular modelling and in vitro screening of monoamine oxidase inhibitory activities of novel quinazolyl hydrazine derivatives” (Royal Society Open Science, 2020).
